Measured values: PubChem BioAssay AID248 (DTP/NCI, 2004)
Several values for one entry are separate records, joined by “and”; a condition that tells them apart may be missing. Identical values can stand only once. Toxic doses and inconclusive results are not listed. Cut-off read from the data, not from the text of the source: active = T/C of 150% or more; inactive = T/C below 125%.

Tested on: L1210 leukemia ip in BDF1 mice, survival T/C
Assay: NCI In Vivo Anticancer Drug Screen. Data for tumor model L1210 Leukemia (intraperitoneal) in B6D2F1 (BDF1) mice
Details: endpoint: mean survival time, higher = longer survival
How it was run: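 Value reflects the ratio of survival in compound-treated mice to survival in vehicle-treated controls, with both groups carrying the same transplanted tumor.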

[1] = dose: 100.0 mg/kg/injection, schedule: Q01DX009 (ip), vehicle: saline with Tween-80
[2] = dose: 200.0 mg/kg/injection, schedule: Q01DX009 (ip), vehicle: saline with Tween-80
[3] = dose: 400.0 mg/kg/injection, schedule: Q01DX009 (ip), vehicle: saline with Tween-80
[4] = dose: 100.0 mg/kg/injection, schedule: Q04DX003 (ip), vehicle: Klucel (hydroxypropylcellulose) (HPC)
[5] = dose: 200.0 mg/kg/injection, schedule: Q04DX003 (ip), vehicle: Klucel (hydroxypropylcellulose) (HPC)
[6] = dose: 400.0 mg/kg/injection, schedule: Q04DX003 (ip), vehicle: Klucel (hydroxypropylcellulose) (HPC)
[7] = dose: 100.0 mg/kg/injection, schedule: Q04DX003 (ip), vehicle: saline with Tween-80
[8] = dose: 200.0 mg/kg/injection, schedule: Q04DX003 (ip), vehicle: saline with Tween-80
[9] = dose: 400.0 mg/kg/injection, schedule: Q04DX003 (ip), vehicle: saline with Tween-80
[10] = dose: 100.0 mg/kg/injection, schedule: Q01DX009 (ip), vehicle: Klucel (hydroxypropylcellulose) (HPC)
[11] = dose: 200.0 mg/kg/injection, schedule: Q01DX009 (ip), vehicle: Klucel (hydroxypropylcellulose) (HPC)
[12] = dose: 100.0 mg/kg/injection, schedule: Q04DX003 (ip), vehicle: saline
[13] = dose: 200.0 mg/kg/injection, schedule: Q04DX003 (ip), vehicle: saline
[14] = dose: 100.0 mg/kg/injection, schedule: Q01DX001 (ip), vehicle: saline
[15] = dose: 400.0 mg/kg/injection, schedule: Q01DX001 (ip), vehicle: saline
[16] = dose: 200.0 mg/kg/injection, schedule: Q01DX001 (ip), vehicle: saline

Measured: T/C

O=C1C=C(NC(Cc2cnc[nH]2)C(=O)O)c2ccccc2C1=O (stereo unspecified)
inactive: dose: 50.0 mg/kg/injection, schedule: Q01DX009 (ip), vehicle: saline with Tween-80 97 % of control | [1] 100 % of control | [2] 93 % of control

CCOC(=O)CNC(=O)Nc1ccc(OC)cc1
inactive: [1] 100 % of control | [2] 93 % of control | [3] 100 % of control

CCOC(=O)C(Cc1c[nH]c2ccccc12)C(=O)OCC
inactive: [4] 96 % of control | [5] 94 % of control | [6] 98 % of control

Clc1ccc(Cl)c(N=NNc2cc(Cl)ccc2Cl)c1
inactive: [1] 101 % of control | [7] 98 % of control | [2] 101 % of control | [8] 101 % of control | [3] 103 % of control | [9] 96 % of control

O=C(OCC1OC(n2nc3ccnc(Cl)c3n2)C(OC(=O)c2ccccc2)C1OC(=O)c1ccccc1)c1ccccc1 (stereo unspecified)
inactive: dose: 50.0 mg/kg/injection, schedule: Q01DX005 (ip), vehicle: saline 105 % of control | dose: 100.0 mg/kg/injection, schedule: Q01DX005 (ip), vehicle: saline 102 % of control | dose: 200.0 mg/kg/injection, schedule: Q01DX005 (ip), vehicle: saline 110 % of control

CC(CO)(C(=O)O)c1ccccc1 (stereo unspecified)
inactive: dose: 55.0 mg/kg/injection, schedule: Q01DX Z (ip), vehicle: saline 103 % of control | dose: 83.0 mg/kg/injection, schedule: Q01DX Z (ip), vehicle: saline 96 % of control | dose: 125.0 mg/kg/injection, schedule: Q01DX Z (ip), vehicle: saline 94 % of control

CCN(C(=O)Nc1ccc(Cl)cc1)c1ccccc1
inactive: [7] 96 % of control | [8] 95 % of control | [9] 86 % of control

COc1c(NC(=O)c2ccc(C(=O)Nc3cccc([N+](=O)[O-])c3OC)cc2)cccc1[N+](=O)[O-]
inactive: [10] 97 % of control | [11] 100 % of control | dose: 400.0 mg/kg/injection, schedule: Q01DX009 (ip), vehicle: Klucel (hydroxypropylcellulose) (HPC) 97 % of control

CC1(c2ccc(N(CCCl)CCCl)cc2)NC(=O)NC1=O (stereo unspecified)
inactive: dose: 12.5 mg/kg/injection, schedule: Q04DX003 (ip), vehicle: saline 98 % of control | dose: 25.0 mg/kg/injection, schedule: Q04DX003 (ip), vehicle: saline 103 % of control | dose: 50.0 mg/kg/injection, schedule: Q04DX003 (ip), vehicle: saline 103 % of control | [12] 113 % of control | [13] 121 % of control

C[N+](C)(C)CCCOC(=O)C1C2CC3OC(=O)C1C3C2 (stereo unspecified)
inactive: [12] 101 % of control | [13] 96 % of control

CCOC=Nc1c(N)ncnc1Cl
inactive: dose: 125.0 mg/kg/injection, schedule: Q01DX Z (ip), vehicle: other 93 % of control | dose: 250.0 mg/kg/injection, schedule: Q01DX Z (ip), vehicle: other 93 % of control | dose: 500.0 mg/kg/injection, schedule: Q01DX Z (ip), vehicle: other 103 % of control

CS(=O)(=O)OCCN(CCOS(C)(=O)=O)c1ccc(/C=N/Nc2ccc([N+](=O)[O-])cc2[N+](=O)[O-])cc1
inactive: [14] 92 % of control | [1] 96 % of control | [12] 91 % of control | [2] 91 % of control | [13] 90 % of control | [15] 89 % of control | [3] 93 % of control | dose: 400.0 mg/kg/injection, schedule: Q04DX003 (ip), vehicle: saline 87 % of control

CCOC(=O)c1cnc2c(ccc3cc(OC)ccc32)c1Cl
inactive: dose: 50.0 mg/kg/injection, schedule: Q01DX009 (ip), vehicle: Klucel (hydroxypropylcellulose) (HPC) 101 % of control | [10] 97 % of control | [11] 101 % of control

OCC(CO)(CCl)CCl
inactive: [1] 103 % of control | [2] 103 % of control | [3] 96 % of control

O=CNC(Cc1ccccc1)Cc1ccccc1
inactive: dose: 5.0 mg/kg/injection, schedule: Q01DX009 (ip), vehicle: Klucel (hydroxypropylcellulose) (HPC) 98 % of control | dose: 5.0 mg/kg/injection, schedule: Q04DX003 (ip), vehicle: Klucel (hydroxypropylcellulose) (HPC) 103 % of control | dose: 10.0 mg/kg/injection, schedule: Q01DX009 (ip), vehicle: Klucel (hydroxypropylcellulose) (HPC) 102 % of control | dose: 10.0 mg/kg/injection, schedule: Q04DX003 (ip), vehicle: Klucel (hydroxypropylcellulose) (HPC) 103 % of control | dose: 20.0 mg/kg/injection, schedule: Q01DX009 (ip), vehicle: Klucel (hydroxypropylcellulose) (HPC) 102 % of control | dose: 20.0 mg/kg/injection, schedule: Q04DX003 (ip), vehicle: Klucel (hydroxypropylcellulose) (HPC) 102 % of control and 107 % of control

c1ccc([Si](c2ccccc2)(c2ccccc2)[Si](c2ccccc2)(c2ccccc2)c2ccccc2)cc1
inactive: dose: 12.5 mg/kg/injection, schedule: Q01DX009 (ip), vehicle: saline 100 % of control | dose: 25.0 mg/kg/injection, schedule: Q01DX009 (ip), vehicle: saline 93 % of control | dose: 50.0 mg/kg/injection, schedule: Q01DX009 (ip), vehicle: saline 93 % of control | dose: 100.0 mg/kg/injection, schedule: Q04DX002 (ip), vehicle: Klucel (hydroxypropylcellulose) (HPC) 98 % of control | dose: 200.0 mg/kg/injection, schedule: Q04DX002 (ip), vehicle: Klucel (hydroxypropylcellulose) (HPC) 98 % of control | dose: 400.0 mg/kg/injection, schedule: Q04DX002 (ip), vehicle: Klucel (hydroxypropylcellulose) (HPC) 87 % of control

Cc1ccc(NC(=O)NCc2ccco2)cc1
inactive: dose: 222.0 mg/kg/injection, schedule: Q01DX Z (ip), vehicle: methylcellulose (MC) 94 % of control | dose: 333.0 mg/kg/injection, schedule: Q01DX Z (ip), vehicle: methylcellulose (MC) 100 % of control | dose: 500.0 mg/kg/injection, schedule: Q01DX Z (ip), vehicle: methylcellulose (MC) 94 % of control

CC(=O)OC(C#N)c1cccc([N+](=O)[O-])c1 (stereo unspecified)
inactive: dose: 6.25 mg/kg/injection, schedule: Q04DX002 (ip), vehicle: Klucel (hydroxypropylcellulose) (HPC) 97 % of control | dose: 12.5 mg/kg/injection, schedule: Q04DX002 (ip), vehicle: Klucel (hydroxypropylcellulose) (HPC) 102 % of control | dose: 25.0 mg/kg/injection, schedule: Q04DX002 (ip), vehicle: Klucel (hydroxypropylcellulose) (HPC) 100 % of control and 92 % of control

Cc1ccc(S(=O)(=O)N(CCO)CCO)cc1
inactive: [4] 101 % of control | [5] 100 % of control | [6] 92 % of control

Cc1ccc(NCCO)c2c(=O)c3ccccc3sc12
inactive: [14] 101 % of control | [16] 101 % of control | [15] 89 % of control

S=C(N/N=C/c1ccc2c(c1)OCO2)Nc1cccc2cccnc12
inactive: [14] 105 % of control | [16] 88 % of control | [15] 96 % of control

CN(C)CCCn1c2nc(=O)[nH]c(=O)c-2nc2cc(Cl)c(Cl)cc21
inactive: dose: 4.0 mg/kg/injection, schedule: Q01DX Z (ip), vehicle: methylcellulose (MC) 117 % of control

CC(=O)O[C@@]1(C)C(=O)OCC2=CCN3CC[C@@H](OC(=O)[C@H](C)[C@]1(C)OC(C)=O)[C@@H]23
inactive: [14] 117 % of control

Cc1cccc(NC(=S)NC(=O)c2cccc([N+](=O)[O-])c2)c1C
inactive: [1] 104 % of control and 118 % of control | dose: 100.0 mg/kg/injection, schedule: Q04DX002 (ip), vehicle: saline with Tween-80 88 % of control | [7] 99 % of control | [2] 103 % of control and 104 % of control | dose: 200.0 mg/kg/injection, schedule: Q04DX002 (ip), vehicle: saline with Tween-80 102 % of control | [8] 101 % of control | [3] 104 % of control | dose: 400.0 mg/kg/injection, schedule: Q04DX002 (ip), vehicle: saline with Tween-80 98 % of control | [9] 100 % of control

C=COC(=O)N1CCCC1C(=O)O (stereo unspecified)
inactive: [14] 92 % of control | [16] 94 % of control | [15] 90 % of control

CC1=C/C=C/C(C)C(O)C(C)C(O)C(C)C(O)C(C)C(O)C(C)CC=C(C)C(=O)c2c(O)c(C)cc3c2C(=O)C(C)=C(NC1=O)C3=O (stereo unspecified)
inactive: [4] 103 % of control | [5] 100 % of control | [6] 101 % of control

CCSC(=O)N1c2ccc(OC)cc2C=CC1C#N (stereo unspecified)
inactive: [1] 119 % of control | [7] 101 % of control | [2] 124 % of control | [8] 97 % of control | [3] 119 % of control | [9] 111 % of control

Nc1ncnc2cc(O)[nH]c12
inactive: dose: 50.0 mg/kg/injection, schedule: Q01DX001 (ip), vehicle: carboxymethylcellulose (CMC) 107 % of control | dose: 100.0 mg/kg/injection, schedule: Q01DX001 (ip), vehicle: carboxymethylcellulose (CMC) 104 % of control

CC1=CC(=N\S(=O)(=O)c2ccccc2)/C(=N/S(=O)(=O)c2ccccc2)C=C1
inactive: [7] 94 % of control | [8] 94 % of control | [9] 92 % of control
